The series in a line: Particle size analysis of micronized progesterone API (Beckman Device, ULM). It counts as physicochemical. The following applies: sample API, Fraunhofer optical model. From the text:
Particle size may be determined in any suitable manner. For example, a Beckman Coulter LS 13 320 Laser Diffraction Particle Size Analyzer (the “Beckman Device”) may be used to determine particle size. As described above, particle size may be represented by various metrics, for example, through an X50 particle size, and/or X90 particle size, or similar descriptions of particle size.
The Beckman Device may be used with various modules for introducing a sample for analysis. The Beckman Device may be used with the LS 13 320 Universal Liquid Module (“ULM”). The ULM is capable of suspending samples in the size range of 0.017 μm to 2000 μm. The ULM is a liquid based module that allows for delivery of the sample to the sensing zone. The ULM recirculates the sample through the Beckman Device. The ULM comprises two hoses, one for fluid delivery and another for waste. The total volume used may be 125 mL or less. A sample mass of from about 1 mg to about 10 g may be used. The ULM may interact with the Beckman Device via pins that fit into slots on the ULM. The ULM may use a variety of suspension fluids, for example, water, butonol, ethanol, chloroform, heptanes, toluene, propanol, COULTER Type 1B Dispersant (“Coulter 1B”), and a variety of other suspension fluids. Surfactants may also be used, though pump speed should be adjusted to prevent excessive bubbling. […]

Take `CC(=O)[C@H]1CC[C@H]2[C@@H]3CCC4=CC(=O)CC[C@]4(C)[C@H]3CC[C@]12C` [Progesterone, progesterone]: the X25 was found to be 1.590 μm and the X75 amounted to 7.442 μm.

Values taken from patent US20140370084A1, “ESTRADIOL FORMULATIONS AND THERAPIES” (TherapeuticsMD, Inc., priority 2013, published 2014).
